Data: ChEMBL document CHEMBL5052831, “Serpin inhibitors for the treatment of prion and prion-like diseases” (2021)

system: ScGT1; experiment: Inhibition of SERPINA3N in mouse GT1 cells chronically infected with RML prion (ScGT1) assessed as reduction of PrPSc levels measured by western blot analysis; type: cell-based; design: concentration or dose not given beside the values

SMILES | Activity
Cc1ccc(-n2ncc(C(=O)C3CCN(C(=O)C4CCC4)C3)c2N)cc1 (configuration not stated) | 50%
O=C(NC1CCCOC1)c1cnn(-c2ccc(F)cc2)c1 (configuration not stated) | 50%
Nc1c(C(=O)c2c[nH]c3ccccc23)cnn1-c1ccccc1 | 50%
CC(=O)N1CCC(C(=O)c2cnn(-c3cccc(F)c3)c2N)CC1 | 50%
Nc1c(C(=O)C2CCN(C(=O)c3ccno3)CC2)cnn1-c1ccccc1 | 50%
Cc1ccc(-n2ncc(C(=O)C3CCN(C(=O)c4scnc4C)CC3)c2N)cc1 | 50%
Cc1n[nH]c(C)c1CNC(=O)c1cnn(-c2ccc(F)cc2)c1 | 50%
